Results as given in paper PMC11480411, “Mucosal sugars delineate pyrazine vs pyrazinone autoinducer signaling in Klebsiella oxytoca” (Nature Communications, 2024).

Columns and labels:
Test in all cases: PRESTO-Tango GPCR screen
Format in all cases: cell-based
Conditions in all cases: 100 µM
ADORA2A = target: T1, ADORA2A (Homo sapiens, UniProt P29274)
T1 construct: purchased PRESTO-Tango GPCR kit (Roth lab / Addgene)
Method in brief: (§1)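 Receptor activation is detected through β-arrestin-TEV cleavage releasing tTA, which drives luciferase in HTLA cells. Transfected cells receive compound (100 μM final) in DMEM with 10 mM HEPES for 20 h; Bright-Glo luminescence is divided by the PBS-control signal.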

APJ = target: T2, APJ (Homo sapiens, UniProt P35414)
T2 construct: purchased PRESTO-Tango GPCR kit (Roth lab / Addgene)
Method in brief: as §1

C5A = target: T3, C5A (Homo sapiens, UniProt P21730)
T3 construct: purchased PRESTO-Tango GPCR kit (Roth lab / Addgene)
T3 sequence (P21730 whole entry): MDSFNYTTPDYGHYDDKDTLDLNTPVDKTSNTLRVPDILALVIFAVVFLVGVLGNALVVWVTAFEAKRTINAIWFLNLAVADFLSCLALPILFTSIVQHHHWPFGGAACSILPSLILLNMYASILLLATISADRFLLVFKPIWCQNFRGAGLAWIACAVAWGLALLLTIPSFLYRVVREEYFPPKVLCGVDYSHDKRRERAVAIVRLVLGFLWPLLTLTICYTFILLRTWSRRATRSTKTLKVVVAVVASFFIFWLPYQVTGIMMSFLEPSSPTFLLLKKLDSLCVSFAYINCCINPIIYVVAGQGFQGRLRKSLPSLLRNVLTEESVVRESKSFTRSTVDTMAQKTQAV
Method in brief: as §1

CCR5 = target: T4, CCR5 (Homo sapiens, UniProt P51681)
T4 construct: purchased PRESTO-Tango GPCR kit (Roth lab / Addgene)
Method in brief: as §1

CXCR5 = target: T5, CXCR5 (Homo sapiens, UniProt P32302)
T5 construct: purchased PRESTO-Tango GPCR kit (Roth lab / Addgene)
Method in brief: as §1

CXCR6 = target: T6, CXCR6 (Homo sapiens, UniProt O00574)
T6 construct: purchased PRESTO-Tango GPCR kit (Roth lab / Addgene)
T6 sequence (O00574 whole entry): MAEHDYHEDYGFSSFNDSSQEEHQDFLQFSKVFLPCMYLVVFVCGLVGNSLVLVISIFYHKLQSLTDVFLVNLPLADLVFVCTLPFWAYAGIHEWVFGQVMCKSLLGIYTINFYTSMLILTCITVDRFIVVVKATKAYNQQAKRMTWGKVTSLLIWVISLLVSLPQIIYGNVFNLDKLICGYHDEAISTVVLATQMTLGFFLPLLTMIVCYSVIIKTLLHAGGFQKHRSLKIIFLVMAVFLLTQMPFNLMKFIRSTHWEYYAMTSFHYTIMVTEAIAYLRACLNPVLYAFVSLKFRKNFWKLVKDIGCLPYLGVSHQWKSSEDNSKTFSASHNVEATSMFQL
Method in brief: as §1

CYSLTR2 = target: T7, CYSLTR2 (Homo sapiens, UniProt Q9NS75)
T7 construct: purchased PRESTO-Tango GPCR kit (Roth lab / Addgene)
Method in brief: as §1

F2RL2 = target: T8, F2RL2 (Homo sapiens, UniProt O00254)
T8 construct: purchased PRESTO-Tango GPCR kit (Roth lab / Addgene)
Method in brief: as §1

FPR3 = target: T9, FPR3 (Homo sapiens, UniProt P25089)
T9 construct: purchased PRESTO-Tango GPCR kit (Roth lab / Addgene)
Method in brief: as §1

GLP2R = target: T10, GLP2R (Homo sapiens, UniProt O95838)
T10 construct: purchased PRESTO-Tango GPCR kit (Roth lab / Addgene)
Method in brief: as §1

GPR111 = target: T11, GPR111 (Homo sapiens, UniProt Q8IZF7)
T11 construct: purchased PRESTO-Tango GPCR kit (Roth lab / Addgene)
Method in brief: as §1

GPR115 = target: T12, GPR115 (Homo sapiens, UniProt Q8IZF3)
T12 construct: purchased PRESTO-Tango GPCR kit (Roth lab / Addgene)
Method in brief: as §1

GPR133 = target: T13, GPR133 (Homo sapiens, UniProt Q6QNK2)
T13 construct: purchased PRESTO-Tango GPCR kit (Roth lab / Addgene)
T13 sequence (Q6QNK2 26-874): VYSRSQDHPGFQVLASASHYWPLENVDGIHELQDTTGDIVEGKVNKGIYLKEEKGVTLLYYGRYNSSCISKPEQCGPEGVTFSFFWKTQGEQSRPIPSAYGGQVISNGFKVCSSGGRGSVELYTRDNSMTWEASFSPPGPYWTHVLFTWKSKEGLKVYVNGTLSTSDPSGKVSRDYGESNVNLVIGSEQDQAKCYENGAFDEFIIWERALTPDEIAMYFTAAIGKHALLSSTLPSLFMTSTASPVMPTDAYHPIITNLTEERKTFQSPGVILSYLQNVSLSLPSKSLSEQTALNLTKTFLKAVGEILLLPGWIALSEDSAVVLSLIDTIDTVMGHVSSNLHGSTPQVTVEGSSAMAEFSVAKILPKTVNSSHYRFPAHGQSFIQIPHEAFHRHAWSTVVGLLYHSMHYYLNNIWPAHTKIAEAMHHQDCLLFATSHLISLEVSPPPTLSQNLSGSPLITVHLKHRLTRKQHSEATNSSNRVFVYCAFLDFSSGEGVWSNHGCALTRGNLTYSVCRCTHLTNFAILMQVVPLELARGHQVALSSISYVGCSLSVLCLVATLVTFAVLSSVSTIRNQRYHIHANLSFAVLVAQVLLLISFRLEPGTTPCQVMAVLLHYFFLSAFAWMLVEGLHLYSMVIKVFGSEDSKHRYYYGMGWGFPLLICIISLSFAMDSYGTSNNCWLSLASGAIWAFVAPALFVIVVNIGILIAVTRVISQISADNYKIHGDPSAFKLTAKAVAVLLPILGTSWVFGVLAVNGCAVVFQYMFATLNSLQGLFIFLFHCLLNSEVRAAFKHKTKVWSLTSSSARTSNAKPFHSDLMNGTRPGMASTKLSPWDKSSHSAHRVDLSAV
Method in brief: as §1

GPR157 = target: T14, GPR157 (Homo sapiens, UniProt Q5UAW9)
T14 construct: purchased PRESTO-Tango GPCR kit (Roth lab / Addgene)
T14 sequence (Q5UAW9 whole entry): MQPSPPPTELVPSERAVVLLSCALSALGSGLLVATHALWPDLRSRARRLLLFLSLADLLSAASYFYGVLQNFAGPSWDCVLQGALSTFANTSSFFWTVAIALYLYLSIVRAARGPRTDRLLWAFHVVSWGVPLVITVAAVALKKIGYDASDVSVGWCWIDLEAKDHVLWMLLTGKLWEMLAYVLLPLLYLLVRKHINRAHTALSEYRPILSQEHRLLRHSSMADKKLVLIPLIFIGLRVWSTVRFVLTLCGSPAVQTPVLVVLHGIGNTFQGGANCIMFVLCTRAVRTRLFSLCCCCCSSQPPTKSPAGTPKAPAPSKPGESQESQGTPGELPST
Method in brief: as §1

GPR173 = target: T15, GPR173 (Homo sapiens, UniProt Q9NS66)
T15 construct: purchased PRESTO-Tango GPCR kit (Roth lab / Addgene)
Method in brief: as §1

GPR18 = target: T16, GPR18 (Homo sapiens, UniProt Q14330)
T16 construct: purchased PRESTO-Tango GPCR kit (Roth lab / Addgene)
Method in brief: as §1

GPR19 = target: T17, GPR19 (Homo sapiens, UniProt Q15760)
T17 construct: purchased PRESTO-Tango GPCR kit (Roth lab / Addgene)
Method in brief: as §1

GPR44 = target: T18, GPR44 (Homo sapiens, UniProt Q9Y5Y4)
T18 construct: purchased PRESTO-Tango GPCR kit (Roth lab / Addgene)
Method in brief: as §1

GPR61 = target: T19, GPR61 (Homo sapiens, UniProt Q9BZJ8)
T19 construct: purchased PRESTO-Tango GPCR kit (Roth lab / Addgene)
T19 sequence (Q9BZJ8 whole entry): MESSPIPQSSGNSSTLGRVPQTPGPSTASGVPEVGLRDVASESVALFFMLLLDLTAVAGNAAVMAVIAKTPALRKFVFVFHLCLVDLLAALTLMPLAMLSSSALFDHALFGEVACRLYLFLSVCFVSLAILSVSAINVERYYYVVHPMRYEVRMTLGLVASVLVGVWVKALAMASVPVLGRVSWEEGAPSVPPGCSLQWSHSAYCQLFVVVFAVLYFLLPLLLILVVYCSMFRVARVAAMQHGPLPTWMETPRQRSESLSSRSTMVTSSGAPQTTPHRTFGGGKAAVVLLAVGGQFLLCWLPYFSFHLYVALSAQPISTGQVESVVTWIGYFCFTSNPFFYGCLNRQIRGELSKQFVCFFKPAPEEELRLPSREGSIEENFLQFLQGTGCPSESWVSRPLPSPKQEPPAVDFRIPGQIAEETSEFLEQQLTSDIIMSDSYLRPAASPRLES
Method in brief: as §1

GPR65 = target: T20, GPR65 (Homo sapiens, UniProt Q8IYL9)
T20 construct: purchased PRESTO-Tango GPCR kit (Roth lab / Addgene)
Method in brief: as §1

GPRC6A = target: T21, GPRC6A (Homo sapiens, UniProt Q5T6X5)
T21 construct: purchased PRESTO-Tango GPCR kit (Roth lab / Addgene)
Method in brief: as §1

GRM4 = target: T22, GRM4 (Homo sapiens, UniProt Q14833)
T22 construct: purchased PRESTO-Tango GPCR kit (Roth lab / Addgene)
T22 sequence (Q14833 33-912): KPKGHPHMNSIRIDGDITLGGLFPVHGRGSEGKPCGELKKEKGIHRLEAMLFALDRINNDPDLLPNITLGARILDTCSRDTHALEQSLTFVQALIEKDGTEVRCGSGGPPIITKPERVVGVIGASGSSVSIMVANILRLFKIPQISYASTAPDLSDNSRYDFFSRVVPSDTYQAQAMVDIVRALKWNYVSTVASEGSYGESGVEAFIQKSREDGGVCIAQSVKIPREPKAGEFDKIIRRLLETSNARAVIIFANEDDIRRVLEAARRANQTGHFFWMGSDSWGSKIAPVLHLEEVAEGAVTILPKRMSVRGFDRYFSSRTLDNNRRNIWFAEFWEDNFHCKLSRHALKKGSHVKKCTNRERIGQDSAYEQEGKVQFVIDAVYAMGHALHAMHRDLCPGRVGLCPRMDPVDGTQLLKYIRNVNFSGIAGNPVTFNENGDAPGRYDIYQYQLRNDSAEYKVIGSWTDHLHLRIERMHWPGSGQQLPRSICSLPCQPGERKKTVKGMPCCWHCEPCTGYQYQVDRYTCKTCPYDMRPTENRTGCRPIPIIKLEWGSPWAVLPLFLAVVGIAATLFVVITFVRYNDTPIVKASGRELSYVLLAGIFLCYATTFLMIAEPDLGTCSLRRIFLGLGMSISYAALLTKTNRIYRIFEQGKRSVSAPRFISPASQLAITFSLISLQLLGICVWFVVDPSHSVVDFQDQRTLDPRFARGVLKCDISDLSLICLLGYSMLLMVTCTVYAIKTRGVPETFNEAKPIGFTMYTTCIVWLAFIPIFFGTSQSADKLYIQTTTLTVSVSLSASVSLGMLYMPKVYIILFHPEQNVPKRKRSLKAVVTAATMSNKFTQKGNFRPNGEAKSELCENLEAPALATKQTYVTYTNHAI
Method in brief: as §1

GRM6 = target: T23, GRM6 (Homo sapiens, UniProt O15303)
T23 construct: purchased PRESTO-Tango GPCR kit (Roth lab / Addgene)
Method in brief: as §1

HCA3 = target: T24, HCA3 (Homo sapiens, UniProt P49019)
T24 construct: purchased PRESTO-Tango GPCR kit (Roth lab / Addgene)
Method in brief: as §1

HTR1D = target: T25, HTR1D (Homo sapiens, UniProt P28221)
T25 construct: purchased PRESTO-Tango GPCR kit (Roth lab / Addgene)
T25 sequence (P28221 whole entry): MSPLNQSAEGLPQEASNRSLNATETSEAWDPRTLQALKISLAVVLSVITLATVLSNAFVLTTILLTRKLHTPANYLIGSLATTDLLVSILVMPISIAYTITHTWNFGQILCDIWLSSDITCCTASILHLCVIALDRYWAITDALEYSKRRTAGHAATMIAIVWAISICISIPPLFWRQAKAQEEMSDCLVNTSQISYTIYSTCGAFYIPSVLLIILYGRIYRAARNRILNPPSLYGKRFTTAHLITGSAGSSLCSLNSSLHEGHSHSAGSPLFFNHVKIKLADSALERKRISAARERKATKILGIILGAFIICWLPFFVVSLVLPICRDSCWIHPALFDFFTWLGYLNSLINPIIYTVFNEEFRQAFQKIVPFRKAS
Method in brief: as §1

LPAR4 = target: T26, LPAR4 (Homo sapiens, UniProt Q99677)
T26 construct: purchased PRESTO-Tango GPCR kit (Roth lab / Addgene)
Method in brief: as §1

MRGPRX1 = target: T27, MRGPRX1 (Homo sapiens, UniProt Q96LB2)
T27 construct: purchased PRESTO-Tango GPCR kit (Roth lab / Addgene)
Method in brief: as §1

NMUR2 = target: T28, NMUR2 (Homo sapiens, UniProt Q9GZQ4)
T28 construct: purchased PRESTO-Tango GPCR kit (Roth lab / Addgene)
Method in brief: as §1

NPFF1 = target: T29, NPFF1 (Homo sapiens, UniProt Q9GZQ6)
T29 construct: purchased PRESTO-Tango GPCR kit (Roth lab / Addgene)
Method in brief: as §1

OPRK1 = target: T30, OPRK1 (Homo sapiens, UniProt P41145)
T30 construct: purchased PRESTO-Tango GPCR kit (Roth lab / Addgene)
T30 sequence (P41145 whole entry): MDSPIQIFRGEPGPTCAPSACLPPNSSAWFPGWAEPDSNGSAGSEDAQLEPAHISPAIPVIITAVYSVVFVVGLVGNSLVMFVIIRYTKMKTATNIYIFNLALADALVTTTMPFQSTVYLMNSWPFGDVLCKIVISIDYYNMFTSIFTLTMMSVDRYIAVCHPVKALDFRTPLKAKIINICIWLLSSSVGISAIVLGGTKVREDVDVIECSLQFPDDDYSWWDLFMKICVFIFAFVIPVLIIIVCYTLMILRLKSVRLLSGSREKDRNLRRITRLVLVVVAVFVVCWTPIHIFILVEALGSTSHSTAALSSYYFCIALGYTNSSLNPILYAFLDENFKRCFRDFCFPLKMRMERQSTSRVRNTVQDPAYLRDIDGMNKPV
Method in brief: as §1

OPRM1 = target: T31, OPRM1 (Homo sapiens, UniProt P35372)
T31 construct: purchased PRESTO-Tango GPCR kit (Roth lab / Addgene)
T31 sequence (P35372 whole entry): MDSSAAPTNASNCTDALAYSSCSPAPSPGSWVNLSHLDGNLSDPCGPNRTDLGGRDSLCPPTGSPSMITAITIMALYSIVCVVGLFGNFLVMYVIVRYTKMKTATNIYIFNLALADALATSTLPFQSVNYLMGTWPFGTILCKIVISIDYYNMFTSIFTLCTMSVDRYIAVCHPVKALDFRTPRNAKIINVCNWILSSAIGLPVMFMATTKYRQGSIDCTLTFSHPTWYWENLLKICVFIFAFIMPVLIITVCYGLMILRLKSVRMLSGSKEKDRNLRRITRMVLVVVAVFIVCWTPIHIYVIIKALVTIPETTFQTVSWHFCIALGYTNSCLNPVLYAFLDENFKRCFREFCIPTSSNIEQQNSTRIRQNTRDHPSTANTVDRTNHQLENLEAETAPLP
Method in brief: as §1

OXTR = target: T32, OXTR (Homo sapiens, UniProt P30559)
T32 construct: purchased PRESTO-Tango GPCR kit (Roth lab / Addgene)
Method in brief: as §1

P2RY10 = target: T33, P2RY10 (Homo sapiens, UniProt O00398)
T33 construct: purchased PRESTO-Tango GPCR kit (Roth lab / Addgene)
Method in brief: as §1

P2RY8 = target: T34, P2RY8 (Homo sapiens, UniProt Q86VZ1)
T34 construct: purchased PRESTO-Tango GPCR kit (Roth lab / Addgene)
Method in brief: as §1

PTGIR = target: T35, PTGIR (Homo sapiens, UniProt P43119)
T35 construct: purchased PRESTO-Tango GPCR kit (Roth lab / Addgene)
T35 sequence (P43119 whole entry): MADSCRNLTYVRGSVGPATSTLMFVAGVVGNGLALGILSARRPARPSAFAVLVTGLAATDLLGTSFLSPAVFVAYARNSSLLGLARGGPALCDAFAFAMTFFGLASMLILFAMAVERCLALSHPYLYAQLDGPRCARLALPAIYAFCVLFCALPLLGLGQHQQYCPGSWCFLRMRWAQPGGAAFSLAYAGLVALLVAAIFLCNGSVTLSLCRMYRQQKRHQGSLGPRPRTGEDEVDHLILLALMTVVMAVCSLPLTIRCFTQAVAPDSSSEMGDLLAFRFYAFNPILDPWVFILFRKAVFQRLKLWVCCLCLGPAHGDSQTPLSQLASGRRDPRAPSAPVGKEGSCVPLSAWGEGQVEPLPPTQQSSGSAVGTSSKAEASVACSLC
Method in brief: as §1

S1PR2 = target: T36, S1PR2 (Homo sapiens, UniProt O95136)
T36 construct: purchased PRESTO-Tango GPCR kit (Roth lab / Addgene)
Method in brief: as §1

SMILES	GPCR activation (heatmap value) (ADORA2A)	GPCR activation (heatmap value) (APJ)	GPCR activation (heatmap value) (C5A)	GPCR activation (heatmap value) (CCR5)	GPCR activation (heatmap value) (CXCR5)	GPCR activation (heatmap value) (CXCR6)	GPCR activation (heatmap value) (CYSLTR2)	GPCR activation (heatmap value) (F2RL2)	GPCR activation (heatmap value) (FPR3)	GPCR activation (heatmap value) (GLP2R)	GPCR activation (heatmap value) (GPR111)	GPCR activation (heatmap value) (GPR115)	GPCR activation (heatmap value) (GPR133)	GPCR activation (heatmap value) (GPR157)	GPCR activation (heatmap value) (GPR173)	GPCR activation (heatmap value) (GPR18)	GPCR activation (heatmap value) (GPR19)	GPCR activation (heatmap value) (GPR44)	GPCR activation (heatmap value) (GPR61)	GPCR activation (heatmap value) (GPR65)	further results
CC(C)Cc1ncc(CCCCNC(=N)N)[nH]c1=O [3-Homo]	0.2086	0.4932	0.3516	0.4723	-0.9057	1.014	-0.09894	-0.002642	0.135	-0.3479	-0.06522	-0.2915	-0.3215	0.207	-0.8728	-0.3064	-0.2115	0.02511	1.164	0.1433	GPCR activation (heatmap value) (GPRC6A): -1.019; GPCR activation (heatmap value) (GRM4): -0.1574; GPCR activation (heatmap value) (GRM6): -0.3175; GPCR activation (heatmap value) (HCA3): -0.8056; GPCR activation (heatmap value) (HTR1D): -0.01602; GPCR activation (heatmap value) (LPAR4): -0.163; GPCR activation (heatmap value) (MRGPRX1): 0.1239; GPCR activation (heatmap value) (NMUR2): 0.3619; GPCR activation (heatmap value) (NPFF1): -0.4803; GPCR activation (heatmap value) (OPRK1): -0.1244; GPCR activation (heatmap value) (OPRM1): 0.127; GPCR activation (heatmap value) (OXTR): 0.4883; GPCR activation (heatmap value) (P2RY10): -0.398; GPCR activation (heatmap value) (P2RY8): 0.2867; GPCR activation (heatmap value) (PTGIR): -0.205; GPCR activation (heatmap value) (S1PR2): -0.09813
CC(C)Cc1ncc(CCCNC(=N)N)[nH]c1=O [compound 3]	0.347	0.6044	0.1076	-0.6917	0.2848	0.09324	-0.2194	0.07678	0.01401	0.1898	-1.0133	0.3053	-0.6324	0.4215	-0.2495	0.788	-0.1336	0.23	0.4932	-0.2267	GPCR activation (heatmap value) (GPRC6A): -0.9035; GPCR activation (heatmap value) (GRM4): -0.2331; GPCR activation (heatmap value) (GRM6): 0.6597; GPCR activation (heatmap value) (HCA3): -0.032; GPCR activation (heatmap value) (HTR1D): 0.2043; GPCR activation (heatmap value) (LPAR4): 0.3739; GPCR activation (heatmap value) (MRGPRX1): -1.215; GPCR activation (heatmap value) (NMUR2): 0.09545; GPCR activation (heatmap value) (NPFF1): 0.7283; GPCR activation (heatmap value) (OPRK1): 0.02999; GPCR activation (heatmap value) (OPRM1): 1.469; GPCR activation (heatmap value) (OXTR): 0.1075; GPCR activation (heatmap value) (P2RY10): -0.2181; GPCR activation (heatmap value) (P2RY8): 0.4444; GPCR activation (heatmap value) (PTGIR): 0.2177; GPCR activation (heatmap value) (S1PR2): 0.5246
